How the values were obtained:
[1] = test system: XBP1, IRE1, GRP78; experiment: Real-time RT-PCR of ER stress genes in CLL cells in vitro; format: cell-based, human; settings: CLL cells n=5; flavopiridol 2 μM, thapsigargin 1 μM, tunicamycin 3 μg/ml; CD52 control gene
Protocol: (§1) RNA was extracted using TRIzol reagent (Invitrogen, Carlsbad, Calif.) and purified using QIAGEN RNeasy columns (Qiagen, Valencia, Calif.). cDNA was prepared with SuperScript First-Strand Synthesis System (Invitrogen). Real-time PCR was performed using primers purchased from Applied Biosystems. Detection was performed using an ABI Prism 7700 sequence detection system (Applied Biosystems). Average relative expression (treatment compared with vehicle) was normalized to the internal control gene CD52. Primers to detect spliced XBP1 were designed using Primer 3 software and purchased from IDT. Samples were analyzed on 10% acrylamide gels.

[2] = test system: 697 cells; experiment: ChIP assay of ATF6 at GRP78 promoter in 697 cells; format: cell-based; settings: relative to IgG control
Protocol: In brief, cells were treated with 37% formaldehyde to ensure crosslinking of proteins to DNA. Cells were lysed and sonicated to shear the chromatin to fragments of approximately 500 bp. Sheared chromatin was incubated with ATF6 antibody (LifeSpan Biosciences, Seattle, Wash.), followed by precipitation, washing and reversing of the crosslinks Purified DNA was then analyzed by real-time quantitative PCR using primers to the GRP78 promoter region. Primers were designed using Primer 3 software and purchased from IDT (Coralville, Iowa).

[3] = test system: IRE1; experiment: XBP1 splicing (IRE1 activity) PCR in CLL cells; format: cell-based, human; settings: for induction of XBP1 splicing: CLL samples
Protocol: as §1

[4] = test system: CLL cells; experiment: LC3 confocal immunofluorescence (autophagosome formation) in CLL cells in vitro; format: cell-based, human; settings: CLL patient cells, 4 hours; rapamycin 5 μM, thapsigargin 1 μM, F-ara-A 5 μM, chlorambucil 20 μM, CAL-101 1 μM, rituximab 10 μg/ml, flavopiridol 2 μM, CQ 0.5 μM
Protocol: (§2) After 4 hours exposure to agents, cells were washed in phosphate-buffered saline (PBS) and made adherent on a microscope slide by centrifugation in a Cytospin3 (Shandon) centrifuge. Immediately after cytospin, cells were fixed in cold acetone. […] Nuclei were stained blue with DAPI (Vector Laboratories, Burlingame, Calif.). Images were taken using a 60× objective and 4× digital zoom with Olympus Fluoview 1000 Laser Scanning Confocal microscope at the Ohio State University Campus Microscopy and Imaging Facility. ATF6 antibody was purchased from LifeSpan Biosciences (Seattle, Wash.) and Nrf2 was from Santa Cruz Biotechnology (Santa Cruz, Calif.). Nuclei were evaluated for ATF6 and Nrf2 using confocal microscopy to collect Z stacks, approximately 45 slices per cell, 0.2 μm each.
LC3 intensity and number of dots per cell were both assessed in the fluorescence images. Integrated intensity was measured using Metamorph v.7.0. To calculate the number of “dots” (local extreme point in pixel-intensity profile at which a number of high-intensity pixels form a cluster), a Gaussian filter was first applied to reduce noise. Cells were enumerated electronically by an improved watershed-based algorithm. To quantify co-localization, two binary nuclei images—red (R) and green (G)—are obtained. The correlation value is calculated as the number of white pixels of (R&G) divided by the number of pixels of (RIG), where (R&G) is the intersection of R and G, and (RIG) is the union of R and G. The program used for cell counts and measurement of correlation index is based on MatLab software (Natick, Mass.) and it was developed by members of Department of Biomedical Informatics, The Ohio State University.

[5] = test system: JNK1 and p38MAPK; experiment: Immunoblot of phosphorylated JNK1 and p38MAPK in CLL cells in vitro; format: cell-based, human; settings: flavopiridol 2 μM, thapsigargin 1 μM, F-ara-A 5 μM
Protocol: (§3) Proteins extracted from whole cell lysates (50 μg/lane) were separated on polyacrylamide gels and transferred on nitrocellulose membrane. Antibodies used for immunoblots included LC3, IRE1α, TRAF2, PI3K III, ATG4C, ATG5-12, UVRAG, Beclin-1 (Cell Signaling, Boston, Mass.), GAPDH, Nrf2, ASK1, ULK1 (Santa Cruz Biotechnology), and Bif-1, ATG14-Barkor (Sigma-Aldrich, St Louis, Mo.). Species-appropriate secondary antibodies were obtained from BioRad Laboratories (Hercules, Calif.). Following antibody incubations, proteins were detected using a chemiluminescent substrate (BioRad Laboratories). For co-immunoprecipitations, TrueBlot beads (eBiosciences, San Diego, Calif.) and One-hour IP Western kit (GenScript, Piscataway, N.J.) were used according to manufacturer protocols. Quantification was done using FluorChem Q (Alpha Innotech, San Leandro Calif.).

[6] = test system: PERK; experiment: PERK activity by eIF2α phosphorylation immunoblot in CLL cells; format: cell-based, human
Protocol: as §3

[7] = test system: ATF6; experiment: ATF6 nuclear translocation by confocal fluorescence microscopy in CLL cells; format: cell-based, human; settings: CLL patient cells, flavopiridol 2 μM or thapsigargin 1 μM, 4 hours
Protocol: After 4 hours exposure to agents, cells were washed in phosphate-buffered saline (PBS) and made adherent on a microscope slide by centrifugation in a Cytospin3 (Shandon) centrifuge. Immediately after cytospin, cells were fixed in cold acetone. Next, the cells were incubated in blocking solution (2% bovine serum albumin in PBS) and stained for LC3 (Cell Signaling, Boston, Mass.)) and Lamp2 (Santa Cruz Biotechnology, Santa Cruz, Calif.) by incubating separately with the respective primary antibodies over night, in 4° C., followed by incubation with fluorescent secondary antibodies (Invitrogen, Carlsbad, Calif.): Alexa fluor 594 (red) anti-rabbit for LC3 and Alexa fluor 488 (green) anti-mouse for Lamp2. Nuclei were stained blue with DAPI (Vector Laboratories, Burlingame, Calif.). Images were taken using a 60× objective and 4× digital zoom with Olympus Fluoview 1000 Laser Scanning Confocal microscope at the Ohio State University Campus Microscopy and Imaging Facility. ATF6 antibody was purchased from LifeSpan Biosciences (Seattle, Wash.) and Nrf2 was from Santa Cruz Biotechnology (Santa Cruz, Calif.). Nuclei were evaluated for ATF6 and Nrf2 using confocal microscopy to collect Z stacks, approximately 45 slices per cell, 0.2 μm each.

[8] = test system: CLL cells; experiment: Cell viability by annexin V/PI flow cytometry in CLL cells
Protocol: Percent of live cells was determined by staining with annexin V-fluorescein isothiocyanate and propidium iodide (PI). After exposure to agents, cells were washed with PBS and stained in 1× binding buffer (BD Biosciences, Franklin Lakes, N.J.). Cell viability was assessed by flow cytometry using a Beckman-Coulter Cytomics FC500 cytometer. Data were analyzed with the CXP Cytometer software package (Beckman-Coulter). A total of 10,000 cells were counted for each sample. The cells treated with flavopiridol were washed after 4 hours with PBS and re-suspended in regular growth medium (RPMI 1640) supplemented with 10% human serum and antibiotics for the remainder of the incubation time. […] For all the other conditions, cells were incubated with the respective drugs for 24 hours continuously.
CLL cells were suspended in buffer V (Amaxa kit, Lonza, Allendale, N.J.) and nucleofection was performed using program U016 (5 μg siRNA and 1×10^7 cells per cuvette). Scrambled siRNA and siRNAs to ATG5, ATG7 and ASK1 were purchased from Sigma-Aldrich. Cells were immediately suspended in warm, complete media supplemented with 10% human serum, and RNA was extracted after 36 hours. For CDK1 and CDK5, siRNAs were purchased from Applied Biosystems (Carlsbad, Calif.). Transfections were done using 5 nM siRNA per cuvette, and RNA was harvested at 48 hours.

[9] = test system: Jurkat cell line; experiment: eIF2α phosphorylation immunoblot in cell lines (control); format: cell-based
Protocol: as §3

[10] = test system: cell lines 293T, RAW and 697, normal B cells; experiment: XBP1 splicing PCR in normal B cells and cell lines; format: cell-based
Protocol: as §1

[11] = test system: CLL cells; experiment: LC3-Lamp2 co-localization (autophagosome-lysosome fusion) by confocal microscopy in CLL cells; format: cell-based, human; settings: CLL cells incubated with 5 μM rapamycin (FIG. 9)
Protocol: as §2
LC3 intensity and number of dots per cell were both assessed in the fluorescence images. Integrated intensity was measured using Metamorph v.7.0. To calculate the number of “dots” (local extreme point in pixel-intensity profile at which a number of high-intensity pixels form a cluster), a Gaussian filter was first applied to reduce noise. Cells were enumerated electronically by an improved watershed-based algorithm. To quantify co-localization, two binary nuclei images—red (R) and green (G)—are obtained. […]

[12] = test system: caspase 8; experiment: Caspase 8 activity (AFC assay) in CLL cells treated in vitro; format: cell-based, human; settings: Z-YVAD-FMK 20 μM in combination with flavopiridol, thapsigargin or tunicamycin
Protocol: (§4) The presence of active caspase enzymes was determined by the AFC assay. Briefly, lysates containing approximately 3×10^6 cells were incubated with 50 μM LEVD-AFC (caspase 4 substrate) or LETD-AFC (caspase 8 substrate) from MP Biomedicals (Solon, Ohio) in 2× cytobuffer from BioVision (Exton, Pa.) containing 10 mM dithiothretiol (DTT). Caspase 4 activity was measured one hour after addition of substrate and caspase 8 activity was measured 30 minutes after addition of substrate. Release of free AFC was measured with a Beckman-Coulter DTX 880 multimode detector (Filters: excitation, 405/10 nm; emission, 535/25 nm). Caspase 4 inhibitor Z-YVAD-FMK was purchased from R&D Systems.

[13] = test system: caspase 4; experiment: Caspase 4 activity (AFC assay) in CLL cells treated in vitro; format: cell-based, human; settings: Z-YVAD-FMK 20 μM in combination with flavopiridol, thapsigargin or tunicamycin
Protocol: as §4

Molecule: C/C=C(/C)C(=O)O[C@H]1C(C)=C2[C@H]([C@@H]1OC(=O)CCCCCCC)[C@@](C)(OC(C)=O)C[C@H](OC(=O)CCC)[C@@]1(O)[C@H]2OC(=O)[C@@]1(C)O [thapsigargin]
- expression of ER stress genes XBP1, IRE1 and GRP78 [1]: significant, time-dependent increase in expression of ER stress genes XBP1, IRE1 and GRP78
- binding of GRP78 promoter region by ATF6 [2]: enhanced binding of the GRP78 promoter region by ATF6
- IRE1 activity (splicing of IRE1 substrate XBP1) ([3]; CLL cells): no evidence of IRE1 activity
- induction of XBP1 splicing [3]: neither thapsigargin nor tunicamycin induced XBP1 splicing in any of the samples analyzed
- LC3 aggregation / LC3 fluorescence (autophagosome formation) versus vehicle [4]: increase in LC3 aggregation
- phosphorylation of JNK1 and p38MAPK [5]: induced the phosphorylation of both JNK1 and p38MAPK
- PERK activity (phosphorylation of eIF2α) [6]: minimally active
- ATF6 nuclear translocation [7]: increased nuclear translocation
- effect of chloroquine addition on cell death caused by the agent ([8]; CLL cells, annexin/PI negative, CQ 0.5 μM, flavopiridol 4 hours then washed, CQ continuous 24 hours): significantly enhanced
- effect of ATG5/ATG7 siRNA vs scrambled siRNA on cytotoxicity of the agent ([8]; human, 24 h, 1 μM): significantly (P=0.0047) enhanced
- eIF2α phosphorylation [9]: dramatic EIF2α phosphorylation
- XBP1 splicing [10]: XBP1 splicing is detected

Molecule: tunicamycin
- expression of ER stress genes XBP1, IRE1 and GRP78 [1]: significant, time-dependent increase in expression of ER stress genes XBP1, IRE1 and GRP78
- induction of XBP1 splicing [3]: neither thapsigargin nor tunicamycin induced XBP1 splicing in any of the samples analyzed

Molecule: O=C(O)CCCc1ccc(N(CCCl)CCCl)cc1 [chlorambucil]
- LC3 aggregation / LC3 fluorescence (autophagosome formation) versus vehicle [4]: neither chlorambucil nor rituximab produced this effect

Molecule: rituximab: agent used in CLL, from Genentech
- LC3 aggregation / LC3 fluorescence (autophagosome formation) versus vehicle [4]: neither chlorambucil nor rituximab produced this effect

Molecule: CCN(CC)CCCC(C)Nc1ccnc2cc(Cl)ccc12 (centres unmarked) [chloroquine]
- chloroquine concentrations that inhibit autophagosome-lysosome fusion [11]: 0.1 to 0.5 µM

Molecule: Z-YVAD-FMK
- inhibition of agent-induced caspase 8 activity [12]: successfully inhibited
- inhibition of agent-induced caspase 4 activity [13]: successfully inhibited
- effect on flavopiridol-mediated cell death ([8]; CLL cells n=5, Z-YVAD-FMK 20 μM, flavopiridol 2 μM, 24 hours): significantly (P=0.012) reduced

Reference: US9044474B2, “Compositions and methods for increasing drug efficacy in cancer” (The Ohio State University, priority 2010, dated 2015)
